Experiment [1] concerns the target soluble human BACE1 catalytic domain (Homo sapiens (Human), UniProt P56817). Put plainly: BACE1 HTRF FRET Assay. Type of experiment: biochemical. The conditions noted are these: Ki calculated from IC50 using the Cheng-Prusoff equation; QSY7-APPswe-Eu substrate, pH 5.0; read-out: BACE-1 Ki. An excerpt:
Na^+-Acetate pH 5.0; 1% Brij-35; Glycerol; Dimethyl Sulfoxide (DMSO); Recombinant human soluble BACE1 catalytic domain (>95% pure); APP Swedish mutant peptide substrate (QSY7-APP^swe-Eu): QSY7-EISEVNLDAEFC-Europium-amide.
A homogeneous time-resolved FRET assay can be used to determine IC50 values for inhibitors of the soluble human BACE1 catalytic domain. This assay monitors the increase of 620 nm fluorescence that resulted from BACE1 cleavage of an APPswedish APP^swe mutant peptide FRET substrate (QSY7-EISEVNLDAEFC-Europium-amide). This substrate contains an N-terminal QSY7 moiety that serves as a quencher of the C-terminal Europium fluorophore (620 nm Em). In the absence of enzyme activity, 620 nm fluorescence is low in the assay and increased linearly over 3 hours in the presence of uninhibited BACE1 enzyme. Inhibition of BACE1 cleavage of the QSY7-APP^swe-Eu substrate by inhibitors is manifested as a suppression of 620 nm fluorescence.
Varying concentrations of inhibitors at 3× the final desired concentration in a volume of 10 ul are preincubated with purified human BACE1 catalytic domain (3 nM in 10 μl) for 30 minutes at 30° C. in reaction buffer containing 20 mM Na-Acetate pH 5.0, 10% glycerol, 0.1% Brij-35 and 7.5% DSMO. Reactions are initiated by addition of 10 μl of 600 nM QSY7-APP^swe-Eu substrate (200 nM final) to give a final reaction volume of 30 μl in a 384 well Nunc HTRF plate. The reactions are incubated at 30° C. for 1.5 hours. The 620 nm fluorescence is then read on a Rubystar HTRF plate reader (BMG Labtechnologies) using a 50 millisecond delay followed by a 400 millisecond acquisition time window. Inhibitor IC50 values are derived from non-linear regression analysis of concentration response curves. Ki values are then calculated from IC50 values using the Cheng-Prusoff equation using a previously determined […] of 8 μM for the QSY7-APP^swe-Eu substrate at BACE1.

Experiment [2] addresses purified human autoBACE-2 (Homo sapiens (Human), UniProt Q9Y5Z0). Put plainly: BACE-2 Assay (BACE-HTRF assay). It is filed as biochemical. The conditions noted are these: Ki calculated from IC50 using the Cheng-Prusoff equation; QSY7-EISEVNLDAEFC-Eu-amide substrate, pH 5.0. On the procedure: Inhibitor IC50s at purified human autoBACE-2 are determined in a time-resolved endpoint proteolysis assay that measures hydrolysis of the QSY7-[…]-Eu-amide FRET peptide substrate (BACE-HTRF assay). […] DMSO is present at 5% final concentration in the assay. Following laser excitation of sample wells at 320 nm, the fluorescence signal at 620 nm is collected for 400 ms following a 50 μs delay on a RUBYstar HTRF plate reader (BMG Labtechnologies). Raw RFU data is normalized to maximum (1.0 nM BACE/DMSO) and minimum (no enzyme/DMSO) RFU values. […] The Ki values are calculated from the IC50 using the Cheng-Prusoff equation.

Each structure is given as a SMILES string.

Sequence of purified human autoBACE-2 (Q9Y5Z0 63-473 limits assumed): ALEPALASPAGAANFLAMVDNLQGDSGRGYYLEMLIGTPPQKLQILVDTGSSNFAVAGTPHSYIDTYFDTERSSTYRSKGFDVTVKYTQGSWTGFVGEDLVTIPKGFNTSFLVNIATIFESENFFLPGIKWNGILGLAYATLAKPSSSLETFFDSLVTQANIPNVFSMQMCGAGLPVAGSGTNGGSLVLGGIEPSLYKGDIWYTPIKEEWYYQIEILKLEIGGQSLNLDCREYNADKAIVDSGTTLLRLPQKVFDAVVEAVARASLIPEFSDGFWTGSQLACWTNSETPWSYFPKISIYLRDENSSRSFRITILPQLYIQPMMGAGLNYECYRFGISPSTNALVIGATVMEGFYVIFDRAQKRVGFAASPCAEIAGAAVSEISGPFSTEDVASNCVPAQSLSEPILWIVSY
Sequence of soluble human BACE1 catalytic domain (P56817 75-416): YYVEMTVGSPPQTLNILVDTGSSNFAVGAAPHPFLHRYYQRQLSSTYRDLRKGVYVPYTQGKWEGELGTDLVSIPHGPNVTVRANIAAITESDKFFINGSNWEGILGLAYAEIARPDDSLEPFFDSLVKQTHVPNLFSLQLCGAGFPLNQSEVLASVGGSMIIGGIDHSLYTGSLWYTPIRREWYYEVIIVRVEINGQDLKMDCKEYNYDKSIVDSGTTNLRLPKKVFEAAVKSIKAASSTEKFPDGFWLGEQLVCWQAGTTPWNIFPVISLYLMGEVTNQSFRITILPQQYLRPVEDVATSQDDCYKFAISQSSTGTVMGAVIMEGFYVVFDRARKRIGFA

Consider `CN1C(=N)N[C@]2(C)c3cc(NC(=O)c4ccccn4)ccc3OCC[C@@H]2S1(=O)=O` [Example 10, N-((4aS,11bR)-2-imino-3,11b-dimethyl-4,4-dioxido-2,3,4a,5,6,11b-hexahydro-1H-benzo[2,3]oxepino[4,5-e][1,2,4]thiadiazin-10-yl)picolinamide], for which the Ki in experiment [1] is 0.035 µM; in experiment [2], 0.015 µM.
In the same order, the values of `CN1C(=N)N[C@]2(C)c3cc(NC(=O)c4ncc(Cl)cc4Cl)ccc3OCC[C@@H]2S1(=O)=O` [Example 11] are 0.002 µM and 0.002 µM.
The corresponding values for `CN1C(=N)N[C@]2(C)c3cc(NC(=O)c4ccc(OC(F)F)cn4)ccc3OCC[C@@H]2S1(=O)=O` [Example 12, 5-(difluoromethoxy)-N-((4aS,11bR)-2-imino-3,11b-dimethyl-4,4-dioxido-2,3,4a,5,6,11b-hexahydro-1H-benzo[2,3]oxepino[4,5-e][1,2,4]thiadiazin-10-yl)picolinamide] are 0.005 µM and 0.058 µM.
The corresponding values for `CN1C(=N)N[C@]2(C)c3cc(NC(=O)c4ncc(Cl)cc4F)ccc3OCC[C@@H]2S1(=O)=O` [Example 13, 5-chloro-3-fluoro-N-((4aS,11bR)-2-imino-3,11b-dimethyl-4,4-dioxido-2,3,4a,5,6,11b-hexahydro-1H-benzo[2,3]oxepino[4,5-e][1,2,4]thiadiazin-10-yl)picolinamide] are 0.004 µM and 0.004 µM.
Consider `CN1C(=N)N[C@]2(C)c3cc(NC(=O)c4ccc(F)cn4)ccc3OCC[C@@H]2S1(=O)=O` [Example 14, 5-fluoro-N-((4aS,11bR)-2-imino-3,11b-dimethyl-4,4-dioxido-2,3,4a,5,6,11b-hexahydro-1H-benzo[2,3]oxepino[4,5-e][1,2,4]thiadiazin-10-yl)picolinamide], for which the Ki in experiment [1] is 0.01 µM; in experiment [2] it was 0.006 µM.
Regarding `CN1C(=N)N[C@]2(C)c3cc(NC(=O)c4ncc(F)cc4F)ccc3OCC[C@@H]2S1(=O)=O` [Example 15], the Ki in experiment [1] was 0.01 µM; in experiment [2], 0.006 µM.
In the same order, the values of `CN1C(=N)N[C@]2(C)c3cc(NC(=O)c4ccc(C#N)cn4)ccc3OCC[C@@H]2S1(=O)=O` [Example 16, 5-cyano-N-((4aS,11bR)-2-imino-3,11b-dimethyl-4,4-dioxido-2,3,4a,5,6,11b-hexahydro-1H-benzo[2,3]oxepino[4,5-e][1,2,4]thiadiazin-10-yl)picolinamide] are 0.001 µM and 0.014 µM.
In the same order, the values of `Cc1ccc(C(=O)Nc2ccc3c(c2)[C@@]2(C)NC(=N)N(C)S(=O)(=O)[C@H]2CCO3)nc1` [Example 17, N-((4aS,11bR)-2-imino-3,11b-dimethyl-4,4-dioxido-2,3,4a,5,6,11b-hexahydro-1H-benzo[2,3]oxepino[4,5-e][1,2,4]thiadiazin-10-yl)-5-methylpicolinamide] are 0.018 µM and 0.016 µM.
The corresponding values for `CN1C(=N)N[C@]2(C)c3cc(NC(=O)c4ccc(C(F)(F)F)cn4)ccc3OCC[C@@H]2S1(=O)=O` [Example 18, N-((4aS,11bR)-2-imino-3,11b-dimethyl-4,4-thoxido-2,3,4a,5,6,11b-hexahydro-1H-benzo[2,3]oxepino[4,5-e][1,2,4]thiadiazin-10-yl)-5-(trifluoromethyl)picolinamide] are 0.011 µM and 0.079 µM.
As for `CN1C(=N)N[C@]2(C)c3cc(NC(=O)c4ccc(OC(F)(F)F)cn4)ccc3OCC[C@@H]2S1(=O)=O` [Example 19, N-((4aS,11bR)-2-imino-3,11b-dimethyl-4,4-dioxido-2,3,4a,5,6,11b-hexahydro-1H-benzo[2,3]oxepino[4,5-e][1,2,4]thiadiazin-10-yl)-5-(trifluoromethoxy)picolinamide], the Ki in experiment [1] is 0.008 µM; in experiment [2], 0.104 µM.
In the same order, the values of `CN1C(=N)N[C@]2(C)c3cc(NC(=O)c4ncc(C(F)(F)F)cc4Cl)ccc3OCC[C@@H]2S1(=O)=O` [Example 20, 3-chloro-N-((4aS,11bR)-2-imino-3,11b-dimethyl-4,4-dioxido-2,3,4a,5,6,11b-hexahydro-1H-benzo[2,3]oxepino[4,5-e][1,2,4]thiadiazin-10-yl)-5-(trifluoromethyl)picolinamide] are 0.005 µM and 0.036 µM.
In the same order, the values of `Cc1ccc(C(=O)Nc2ccc3c(c2)[C@@]2(C)NC(=N)N(C)S(=O)(=O)[C@H]2CCC3)nc1` [Example 21, N-((4aS,11bR)-2-imino-3,11b-dimethyl-4,4-dioxido-1,2,3,4a,5,6,7,11b-octahydrobenzo[6,7]cyclohepta[1,2-e][1,2,4]thiadiazin-10-yl)-5-methylpicolinamide] are 0.045 µM and 0.034 µM.
In the same order, the values of `CN1C(=N)N[C@]2(C)c3cc(NC(=O)c4ccc(OC(F)F)cn4)ccc3CCC[C@@H]2S1(=O)=O` [Example 22, 5-(difluoromethoxy)-N-((4aS,11bR)-2-imino-3,11b-dimethyl-4,4-dioxido-1,2,3,4a,5,6,7,11b-octahydrobenzo[6,7]cyclohepta[1,2-e][1,2,4]thiadiazin-10-yl)picolinamide] are 0.01 µM and 0.09 µM.
For the compound `CN1C(=N)N[C@]2(C)c3cc(NC(=O)c4ccc(Cl)cn4)ccc3CCC[C@@H]2S1(=O)=O` [Example 23, 5-chloro-N-((4aS,11bR)-2-imino-3,11b-dimethyl-4,4-dioxido-1,2,3,4a,5,6,7,11b-octahydrobenzo[6,7]cyclohepta[1,2-e][1,2,4]thiadiazin-10-yl)picolinamide], the inhibitory constant (Ki) in experiment [1] and in experiment [2] was 0.007 µM each time.
`Cc1cnc(C(=O)Nc2ccc3c(c2)[C@@]2(C)NC(=N)N(C)S(=O)(=O)[C@H]2CCC3)cn1` [Example 24, N-((4aS,11bR)-2-imino-3,11b-dimethyl-4,4-dioxido-1,2,3,4a,5,6,7,11b-octahydrobenzo[6,7]cyclohepta[1,2-e][1,2,4]thiadiazin-10-yl)-5-methylpyrazine-2-carboxamide]: the results for the Ki in experiment [1] and in experiment [2] were 0.168 µM and 0.251 µM, respectively.
In the same order, the values of `CN1C(=N)N[C@]2(C)c3cc(NC(=O)c4ncc(Cl)cc4F)ccc3CCC[C@@H]2S1(=O)=O` [Example 25, 5-chloro-3-fluoro-N-((4aS,11bR)-2-imino-3,11b-dimethyl-4,4-dioxido-1,2,3,4a,5,6,7,11b-octahydrobenzo[6,7]cyclohepta[1,2-e][1,2,4]thiadiazin-10-yl)picolinamide] are 0.007 µM and 0.005 µM.
The corresponding values for `CN1C(=N)N[C@]2(C)c3cc(NC(=O)c4ncc(F)cc4F)ccc3CCC[C@@H]2S1(=O)=O` [Example 26, 3,5-difluoro-N-((4aS,11bR)-2-imino-3,11b-dimethyl-4,4-dioxido-1,2,3,4a,5,6,7,11b-octahydrobenzo[6,7]cyclohepta[1,2-e][1,2,4]thiadiazin-10-yl)picolinamide] are 0.018 µM and 0.01 µM.
In the same order, the values of `COc1cc(Br)cnc1C(=O)Nc1ccc2c(c1)[C@@]1(C)NC(=N)N(C)S(=O)(=O)[C@H]1CCC2` [Example 27, 5-bromo-N-((4aS,11bR)-2-imino-3,11b-dimethyl-4,4-dioxido-1,2,3,4a,5,6,7,11b-octahydrobenzo[6,7]cyclohepta[1,2-e][1,2,4]thiadiazin-10-yl)-3-methoxypicolinamide] are 0.018 µM and 0.01 µM.
For `CN1C(=N)N[C@]2(C)c3cc(NC(=O)c4ccc(F)cn4)ccc3CCC[C@@H]2S1(=O)=O` [Example 28, 5-fluoro-N-((4aS,11bR)-2-imino-3,11b-dimethyl-4,4-dioxido-1,2,3,4a,5,6,7,11b-octahydrobenzo[6,7]cyclohepta[1,2-e][1,2,4]thiadiazin-10-yl)picolinamide], the Ki is 0.018 µM in experiment [1] and 0.007 µM in experiment [2].
Regarding `CN1C(=N)N[C@]2(C)c3cc(NC(=O)c4ccc(OC(F)(F)F)cn4)ccc3CCC[C@@H]2S1(=O)=O` [Example 29, N-((4aS,11bR)-2-imino-3,11b-dimethyl-4,4-dioxido-1,2,3,4a,5,6,7,11b-octahydrobenzo[6,7]cyclohepta[1,2-e][1,2,4]thiadiazin-10-yl)-5-(trifluoromethoxy)picolinamide], the inhibitory constant (Ki) in experiment [1] is 0.014 µM; in experiment [2], 0.144 µM.

One may read the Ki as a measure of affinity in units of concentration, obtained from inhibition or displacement.

(Values after patent US10238743B2 (Merck Sharp & Dohme Corp., priority 2014, dated 2019).)
